{"source": "patent US12144795B2", "about": "“Cannabidiol compositions having modified cannabinoid profiles” (priority 2018, dated 2024)", "format_in_all_cases": "physicochemical", "key": {"[1]": {"test": "Quantitative thermodynamic solubility determination at ambient temperature, evaporated solids analyzed by XRPD", "details": "for solubility: thermodynamic from solid, ambient temperature", "protocol": "A quantitative thermodynamic solubility determination was performed on crude cannabidiol obtained via Protocol 2 to aid in the selection of solvents for crystallization experiments. The clear solutions obtained from each solubility determination experiment were evaporated and the obtained solids were analyzed by XRPD.\nWhen the material precipitated as a solid, it was classified as Form A. However, in 11 experiments, the material obtained after evaporation was oil-like in appearance and could not be analyzed by XRPD. When no XRPD record was generated, the field was defined as “Not Applicable” (N/A)."}, "[2]": {"test": "Particle size distribution (Mastersizer 2000 laser diffraction, Morphologi G3)", "source_text": "A Mastersizer 2000 was used to analyze the particle size distribution in cannabidiol samples. This method involved laser diffraction to measure the particle size distribution by the volume standard. Roughly 1 g of each sample was weighed and transferred along the middle of the sample tray. The sample feed gates were 6 mm-8 mm. The instrument software parameters were set to a dispersive air pressure of 3 bar, vibration feed rate of 60%, refractive index of 1.5295, absorption index of 0.01, and size range from 0.020 μm to 2000.000 μm. FIG. 8A-FIG. 8R show the result analysis report for each sample measured as well as their respective particle size distribution graph. Malvern Pananalytical's Morphologi G3 Analyzer was used in another series of experiments to examine sample volume size distribution."}, "[3]": {"test": "HPLC method quantifying low levels of D9-THC in stored cannabidiol samples", "protocol": "An analytical method using HPLC was developed to determine low levels of delta-9-tetrahydrocannabinol in cannabidiol samples. A Waters XBridge C18 3.5 μm, 3.0×150 mm column was employed and operated at a temperature of 30° C., UV wavelength of 225 nm, and injection size of 20 μL. Mobile Phase A was 0.02% (v/v) acetic acid in H2O, while mobile phase B was 0.02% (v/v) acetic acid in acetonitrile (ACN).\nAn aliquot of 0.5 mL of a D9-THC reference standard (Cerilliant, 1.0 mg/mL MeOH solution) was diluted in a 500-mL volumetric flask using sample diluent (70/30 Acetonitrile/H2O, v/v). The D9-THC concentration was 0.001 mg/mL in the standard stock solution, which corresponded with 200 ppm of D9-THC as compared to the CBD sample solution (nominal CBD concentration was 5.0 mg/mL).\nAn Aliquot of 5 mL of THC Stock Standard Solution was diluted in a 100-mL volumetric flask using the sample diluent. The D9-THC concentration was 0.00005 mg/mL in the working standard solution, corresponding with 10 ppm of D9-THC as compared to the CBD sample solution.\nAbout 50 mg of cannabidiol sample was weighed into a 10-mL volumetric flask. The volumetric flask was diluted to volume using sample diluent and mixed well.\nA minimum of 6 working standard solutions were injected prior to the sample set. Furthermore, a maximum of 6 injections of CBD sample were injected between bracketing working standard solutions.\nThe amount of THC in each sample was calculated using the following\nFor reference, each chromatogram in FIG. 6A through FIG. 6F is shown against a 10 ppm THC working standard. For samples 1, 2, and 3, roughly 50.28 mg, 50.77 mg, and 55.60 mg material was used."}, "[4]": {"details": "after stored for 23 days at 55-60° C."}, "[5]": {"details": "after storage at −16° C. for two years"}}}
{"smiles": "C=C(C)[C@@H]1CCC(C)=C[C@H]1c1c(O)cc(CCCCC)cc1O", "note": "[crude cannabidiol, cannabidiol]", "values": [{"measurement": "solubility", "setting": "[1]; organic solvent or mixture, 1,2-Dimethoxyethane", "result": "> 100", "unit": "mg/mL"}, {"measurement": "solubility", "setting": "[1]; organic solvent or mixture, 1-Propanol", "result": "> 100", "unit": "mg/mL"}, {"measurement": "solubility", "setting": "[1]; organic solvent or mixture, 1.4-Dioxane", "result": "> 100", "unit": "mg/mL"}, {"measurement": "solubility", "setting": "[1]; organic solvent or mixture, 2-Butanone", "result": "> 100", "unit": "mg/mL"}, {"measurement": "solubility", "setting": "[1]; organic solvent or mixture, 2-propanol", "result": "> 100", "unit": "mg/mL"}, {"measurement": "solubility", "setting": "[1]; organic solvent or mixture, Acetone", "result": "> 100", "unit": "mg/mL"}, {"measurement": "solubility", "setting": "[1]; organic solvent or mixture, Acetonitrile", "result": "> 100", "unit": "mg/mL"}, {"measurement": "solubility", "setting": "[1]; organic solvent or mixture, Anisole", "result": "> 100", "unit": "mg/mL"}, {"measurement": "solubility", "setting": "[1]; organic solvent or mixture, Chloroform", "result": "> 100", "unit": "mg/mL"}, {"measurement": "solubility", "setting": "[1]; organic solvent or mixture, Cumene", "result": "> 100", "unit": "mg/mL"}, {"measurement": "solubility", "setting": "[1]; organic solvent or mixture, Cyclohexane", "result": "> 100", "unit": "mg/mL"}, {"measurement": "solubility", "setting": "[1]; organic solvent or mixture, Dichloromethane", "result": "> 100", "unit": "mg/mL"}, {"measurement": "solubility", "setting": "[1]; organic solvent or mixture, Diethyl ether", "result": "> 100", "unit": "mg/mL"}, {"measurement": "solubility", "setting": "[1]; organic solvent or mixture, Ethanol", "result": "> 100", "unit": "mg/mL"}, {"measurement": "solubility", "setting": "[1]; organic solvent or mixture, Ethyl Acetate", "result": "> 100", "unit": "mg/mL"}, {"measurement": "solubility", "setting": "[1]; organic solvent or mixture, Ethyl Formate", "result": "> 100", "unit": "mg/mL"}, {"measurement": "solubility", "setting": "[1]; organic solvent or mixture, Heptane", "result": 64.6, "unit": "mg/mL"}, {"measurement": "solubility", "setting": "[1]; organic solvent or mixture, Isobutanol", "result": "> 100", "unit": "mg/mL"}, {"measurement": "solubility", "setting": "[1]; organic solvent or mixture, Isopropyl acetate", "result": "> 100", "unit": "mg/mL"}, {"measurement": "solubility", "setting": "[1]; organic solvent or mixture, Methanol", "result": "> 100", "unit": "mg/mL"}, {"measurement": "solubility", "setting": "[1]; organic solvent or mixture, Tert-Butyl methyl ether", "result": "> 100", "unit": "mg/mL"}, {"measurement": "solubility", "setting": "[1]; organic solvent or mixture, Tetrahydrofuran", "result": "> 100", "unit": "mg/mL"}, {"measurement": "solubility", "setting": "[1]; organic solvent or mixture, Toluene", "result": "> 100", "unit": "mg/mL"}, {"measurement": "solubility", "setting": "[1]; organic solvent or mixture, p-Xylene", "result": "> 100", "unit": "mg/mL"}, {"measurement": "XRPD", "setting": "[1]; solid after evaporation of 1.4-Dioxane solution", "result": "Form A"}, {"measurement": "XRPD", "setting": "[1]; solid after evaporation of 2-Butanone solution", "result": "Form A"}, {"measurement": "XRPD", "setting": "[1]; solid after evaporation of Chloroform solution", "result": "Form A"}, {"measurement": "XRPD", "setting": "[1]; solid after evaporation of Cyclohexane solution", "result": "Form A"}, {"measurement": "XRPD", "setting": "[1]; solid after evaporation of Dichloromethane solution", "result": "Form A"}, {"measurement": "XRPD", "setting": "[1]; solid after evaporation of Diethyl ether solution", "result": "Form A"}, {"measurement": "XRPD", "setting": "[1]; solid after evaporation of Ethyl Acetate solution", "result": "Form A"}, {"measurement": "XRPD", "setting": "[1]; solid after evaporation of Ethyl Formate solution", "result": "Form A"}, {"measurement": "XRPD", "setting": "[1]; solid after evaporation of Heptane solution", "result": "Form A"}, {"measurement": "XRPD", "setting": "[1]; solid after evaporation of Isopropyl acetate solution", "result": "Form A"}, {"measurement": "XRPD", "setting": "[1]; solid after evaporation of Tert-Butyl methyl ether solution", "result": "Form A"}, {"measurement": "XRPD", "setting": "[1]; solid after evaporation of Tetrahydrofuran solution", "result": "Form A"}, {"measurement": "XRPD", "setting": "[1]; solid after evaporation of Toluene solution", "result": "Form A"}, {"measurement": "XRPD", "setting": "[1]; solid after evaporation of Water solution", "result": "Form A"}, {"measurement": "solubility", "setting": "[1]; Water", "result": "< 0.13", "unit": "mg/mL"}]}
{"smiles": "C=C(C)[C@@H]1CCC(C)=C[C@H]1c1c(O)cc(CCCCC)cc1O", "note": "[Sample 1, Cannabidiol]", "values": [{"measurement": "Malvern 2K (dry dispersion) D10", "setting": "[2]", "result": "D10: 7.8 um"}, {"measurement": "Malvern 2K (dry dispersion) D50", "setting": "[2]", "result": "D50: 21.8 um"}, {"measurement": "Malvern 2K (dry dispersion) D90", "setting": "[2]", "result": "D90: 152.9 um"}, {"measurement": "Result (D9-THC in ppm)", "setting": "[3]; [4]", "result": 1.9, "unit": "ppm"}]}
{"smiles": "C=C(C)[C@@H]1CCC(C)=C[C@H]1c1c(O)cc(CCCCC)cc1O", "note": "[Sample 5, Cannabidiol]", "values": [{"measurement": "Result (D9-THC in ppm)", "setting": "[3]; [5]", "result": 21.7, "unit": "ppm"}]}
{"smiles": "C=C(C)[C@@H]1CCC(C)=C[C@H]1c1c(O)cc(CCCCC)cc1O", "note": "[Sample 6, Cannabidiol]", "values": [{"measurement": "Result (D9-THC in ppm)", "setting": "[3]; [5]", "result": 7.3, "unit": "ppm"}]}
{"smiles": "C=C(C)[C@@H]1CCC(C)=C[C@H]1c1c(O)cc(CCCCC)cc1O", "note": "[Sample 3, Cannabidiol]", "values": [{"measurement": "Result (D9-THC in ppm)", "setting": "[3]; after storage for one month at room temperature (25° C.)", "result": 5.1, "unit": "ppm"}]}
{"smiles": "C=C(C)[C@@H]1CCC(C)=C[C@H]1c1c(O)cc(CCCCC)cc1O", "note": "[Sample 2, Cannabidiol]", "values": [{"measurement": "Malvern 2K (dry dispersion) D10", "setting": "[2]", "result": "D10: 8.0 um"}, {"measurement": "Malvern 2K (dry dispersion) D50", "setting": "[2]", "result": "D50: 23.9 um"}, {"measurement": "Malvern 2K (dry dispersion) D90", "setting": "[2]", "result": "D90: 157.5 um"}, {"measurement": "Result (D9-THC in ppm)", "setting": "[3]; [4]", "result": 5.9, "unit": "ppm"}]}
{"smiles": "C=C(C)[C@@H]1CCC(C)=C[C@H]1c1c(O)cc(CCCCC)cc1O", "note": "[Sample 4, Cannabidiol]", "values": [{"measurement": "Result (D9-THC in ppm)", "setting": "[3]; [5]", "result": 8.3, "unit": "ppm"}]}
